Experimental findings from patent US20140242673A1, “CHEMICALLY DEFINED CULTURE MEDIUM FOR FERMENTATION TO PRODUCE SUCCINIC ACID AND APPLICATION THEREOF” (NANJING UNIVERSITY OF TECHNOLOGY, priority 2011, published 2014) are described below.

Common to all, as to format: cell-based
The subject of assay [1] is Mannheimia succiniciproducens MBEL55E. As to the kind of experiment: Production of succinic acid by fermentation with biotin replaced by 5-ALA. Here is the method: In this preferred embodiment, biotin (10˜20 mg/L) in culture medium is replaced by 0.1˜1 mg/L of 5-ALA, for fermentation experiment.
The microorganism adopts large Mannheimia succiniciproducens MBEL55E (strain from patents of publication No. EP2096177 and No. EP2199304).
Cultivation in fermenter: transfer activated seed liquid and sterilized glucose into fermenter; inoculum size shall be 7% (volume ratio); stirring speed shall be 200 rpm; allow fermentation at 37° C.; amount of CO2 connected shall be 0.25 vvm.
Conventional compositions of fermentation culture medium (g/L): 10 of mixed carbohydrate obtained from pre-treated stalk (measured total carbohydrate concentration), 3 of disodium fumarate, 4 of KH2PO4, 0.4 of MgCl2.6H2O, 0.4 of CaCl2, and 2 of NaCl; sterilize at pH value of 7.0 and 121° C. for 15 min; ammonia is adopted as neutralizing agent.

For assay [2], the system named is Actinobacillus succinogenes NJ113 (CGMCC 1716). As to the kind of experiment: Fermentation in defined medium with one growth factor missing (serum bottle, 30 h). The conditions noted are these: for bacterial growth / glucose remaining / succinic acid production: culture medium lacks the named growth factor; for OD660 / Residual glucose / Succinic acid: medium lacking the named growth factor, 30 h, 37° C., 200 rpm. From the text:
To investigate the effect of critical factors on succinic acid production described by this invention can use any microorganism germ seed used for production of succinic acid using anaerobic fermentation in existing technology. This preferred embodiment uses NJ113 (Actinobacillus succinogenes NJ113), which has been patented (authorized publication No.: CN100537744C).
First, significance and effect of various amino acids, vitamins, and metallic microelements on bacterial growth and metabolism has been investigated on defined medium. Particular operation and cultivation conditions are as follows:
(1) Preparation of amino acid mixed liquids: Remove each one type of amino acid from the 18 types of amino acid being tested, to prepare a mixed liquid of remaining 17 types of amino acid of suitable concentration (suitable concentration refers to the concentration at which the substance of lowest solubility is completely dissolved), as well as a mixed liquid containing all 18 types of amino acid. Quantity of each such liquid is 100 mL. After filtration sterilization by 0.22 μm sterile filtering head, keep these liquids for later use. Refer to Attached Table 1 for contents of various amino acids in the culture medium.
(2) Preparation of vitamin mixed liquids: Using the method in […], remove each one type of vitamin from the 10 types of vitamin being tested, to prepare a mixed liquid of remaining 9 types of vitamin of suitable concentration (suitable concentration refers to the concentration at which the substance of lowest solubility is completely dissolved), as well as a mixed liquid containing all 10 types of vitamin. Quantity of each such liquid is 100 mL. After filtration sterilization by 0.22 μm sterile filtering head, keep these liquids for later use. Refer to Attached Table 1 for contents of various vitamins in the culture medium.
(3) Preparation of metallic microelement mixed liquids: Using the method in step (1), remove each one type of metal salt from the 12 types of metal salt being tested, to prepare a mixed liquid of remaining 11 types of metal salt of suitable concentration (suitable concentration refers to the concentration at which the substance of lowest solubility is completely dissolved), as well as a mixed liquid containing all 12 types of metal salt. Quantity of each such liquid is 100 mL. After sterilization at 121° C. for 15 min, keep these liquids for later use. Refer to Attached Table 1 for contents of various metal salts in the culture medium.
Conventional compositions of fermentation culture medium (g/L): 90 of glucose (separately sterilized), 1 of disodium fumarate, 2 of KH2PO4, 0.2 of MgCl2.6H2O, 0.2 of CaCl2, and 1 of NaCl; sterilized at pH of 7.0 and 121° C. for 15 min; sodium carbonate adopted as neutralizing agent.
In a 100 mL serum bottle, add […] of fermentation culture medium and 1 mL of Actinobacillus succinogenes NJ113 (CGMCC 1716) seed liquid that has been washed by sterilized water; sterilize at 121° C. for 15 min; and then add 4 mL of reserved mixed liquid not containing a type of amino acid, 0.5 mL of reserved mixed liquid containing all vitamins being tested, 1 mL of reserved mixed liquid containing all types of metal salt being tested, and […] of sterilized 600 g/L glucose, so that after inoculation, the total volume reaches 20 mL and glucose concentration is 30 g/L.
Use the same method to prepare fermentation culture medium that lacks a certain type of vitamin or metal salt.
Carry out fermentation of above culture media under the following conditions:
At mechanical shaker speed of 200 rpm and 37° C., allow fermentation for 30 h and then detect content of succinic acid in the fermentation liquid.

The next assay has as its system Escherichia coli. The assay is described as follows: Production of succinic acid by fermentation at different biotin concentrations. Here is the method:
This preferred embodiment reduces biotin consumption in the culture medium. Particular method of change of fermentation culture medium is described below.
Germ seed: Escherichia coli (strain from patent of publication No. CN102154339A)
Cultivation in fermenter: transfer activated seed liquid and sterilized glucose into fermenter; inoculum size shall be 5% (volume ratio); stirring speed shall be 200 rpm; allow fermentation at 37° C.; amount of CO2 connected shall be 0.25 vvm.
Conventional compositions of fermentation culture medium (g/L): 30 of glucose (separately sterilized), 2 of disodium fumarate, 3 of KH2PO4, 0.3 of MgCl2.6H2O, 0.23 of CaCl2, and 1 of NaCl; sterilized at pH of 7.0 and 121° C. for 15 min; sodium carbonate adopted as neutralizing agent.
In a 100 mL serum bottle, add 15 g/L of Na2HPO4, 4 g/L of KH2PO4, 13.1 mL of water, and 1 mL of Actinobacillus succinogenes NJ113 (CGMCC 1716) seed liquid after being washed by sterilized water; sterilize at 121° C. for 15 min, and then add 4 mL of reserved mixed liquid containing corresponding concentrations of amino acids, 0.5 mL of mixed liquid of vitamins including niacin and biotin so that […], 1 mL of reserved mixed liquid containing all metal salts being tested, and 0.4 mL of sterilized 500 g/L glucose solution, so that total volume after inoculation reaches 20 mL and glucose concentration is 10 g/L.
Fermentation experiment of above culture media containing different concentrations of biotin has been carried out under the same fermentation conditions as preferred embodiment 1:
According to identical germ seed, fermentation conditions, and experiment method of this preferred embodiment, biotin consumption in the culture medium is further lowered, to concentrations of 50 μg/L, 100 μg/L, 150 μg/L, 200 μg/L, and 300 μg/L respectively, for fermentation experiment: […]

Where [3] appears, read: 5-ALA 0.1~1 mg/L replacing biotin.

Take `NCC(=O)CCC(=O)O` [5-ALA, 5-aminolevulinate]: in assay [1] (setting [3]), the Residual glucose stood at 3.4 g/L and the Succinic acid came out at 15.6 ± 0.2 g/L. In addition, in assay [1] (biotin completely replaced by 5-ALA), the “output of succinic acid compared with biotin” value is “can realize the highest output of succinic acid that can be obtained using biotin”.
As for `O=C(O)CCCC[C@@H]1SC[C@@H]2NC(=O)N[C@@H]21` [Biotin, biotin], the bacterial growth entry in assay [2] is recorded as “relatively poor”. The glucose remaining entry in assay [2] was “large amount of glucose remains”. Moreover, the succinic acid production result in assay [2] is listed as “very low”. The same molecule displayed an OD660 in assay [2] of 0.3. The Residual glucose is 6.9 g/L in assay [2]; 23 g/L with Escherichia coli (biotin 50 μg/L); 2.2 g/L in the assay on Escherichia coli (biotin 100 μg/L); 2.6 g/L in the assay on Escherichia coli (biotin 150 μg/L); 2.5 g/L with Escherichia coli (biotin 200 μg/L); 2.8 g/L with Escherichia coli (biotin 300 μg/L). The Residual glucose with Escherichia coli (biotin 2 mg/L), with Escherichia coli (biotin 4 mg/L), in the assay on Escherichia coli (biotin 6 mg/L), with Escherichia coli (biotin 8 mg/L), with Escherichia coli (biotin 10 mg/L) and in the assay with Escherichia coli (biotin 20 mg/L) was 0 g/L throughout. The Succinic acid is listed as 0.7 g/L in assay [2]; 1.6 g/L in the assay with Escherichia coli (biotin 50 μg/L); 15.8 g/L in the assay with Escherichia coli (biotin 100 μg/L); 16.2 g/L in the assay on Escherichia coli (biotin 150 μg/L); 16.8 g/L in the assay with Escherichia coli (biotin 200 μg/L); 16.7 g/L in the assay on Escherichia coli (biotin 300 μg/L). In addition, the Succinic acid in the assay on Escherichia coli (biotin 2 mg/L) stood at 18.8 g/L; in the assay on Escherichia coli (biotin 4 mg/L), 18.6 g/L; in the assay with Escherichia coli (biotin 6 mg/L), 17.7 g/L; in the assay with Escherichia coli (biotin 8 mg/L) it was 19.4 g/L; with Escherichia coli (biotin 10 mg/L), 18.7 g/L; in the assay with Escherichia coli (biotin 20 mg/L) it was 18.5 g/L.
On to `N[C@@H](CCC(=O)O)C(=O)O` [Glutamic acid], for which, in assay [2], the bacterial growth entry is “relatively poor”, the glucose remaining result is “large amount of glucose remains”, the succinic acid production entry is “very low” and the OD660 is listed as 0.4. In assay [2], this molecule gave a Residual glucose of 8.1 g/L and a Succinic acid of 0.5 g/L.
On to `CSCC[C@H](N)C(=O)O` [Methionine], for which, in assay [2], the bacterial growth result is on record as “relatively poor”, the glucose remaining result is listed as “large amount of glucose remains”, the succinic acid production result is on record as “very low” and the OD660 is reported as 0.6. For the same molecule, in assay [2], the Residual glucose is 4.3 g/L and the Succinic acid is recorded as 1.3 g/L.
With `O=C(O)c1cccnc1` [Niacin], in assay [2], the bacterial growth result is listed as “relatively poor”, the glucose remaining entry is reported as “large amount of glucose remains”, the succinic acid production entry was “very low” and the OD660 was 0.2. Besides, in assay [2], the Residual glucose is given as 5.6 g/L and the Succinic acid turned out to be 0.1 g/L.
